Data reported in patent publication US10059709B2, “Compounds” (Elanco Tiergesundheit AG, priority 2014, dated 2018).

Tests used:
Assay type in all cases: biochemical
GST-JAK3(811-1124) = GST-JAK3(811-1124) (Homo sapiens (Human), UniProt P52333); assay: Caliper mobility shift kinase assay, JAK3; details: JAK3tide 2 μM, ATP 80 or 18 μM, 60 minutes at 30° C.
From the text: (§1) Measurement of the Effect on the JAK Enzyme
(§2) All four kinases of the JAK/TYK-kinase family were used as purified recombinant GST-fusion proteins, containing the active kinase domains. GST-JAK1(866-1154), GST-JAK3(811-1124), and GST-TYK2(888-1187) were expressed and purified by affinity chromatography at the EPK biology unit.
(§3) The kinase assays were based on the Caliper mobility shift assay using the LabChip 3000 systems. This technology is similar to capillary electrophoresis and uses charge driven separation of substrate and product in a microfluidic chip.
(§4) All kinase reactions were performed in 384 well microtiter plates in a total reaction volume of
18 μI. The assay plates were prepared with 0.1 μI per well of test compound in the appropriate test concentration, as described under the section “preparation of compound dilutions”. The reactions were started by combining 9 μI of substrate mix (consisting of peptide and ATP) with 9 μI of kinase dilution. The reactions were incubated for 60 minutes at 30° C. and stopped by adding 70 μI of stop buffer (100 mM Hepes, 5% DMSO, 0.1% Coating reagent, 10 mM EDTA, 0.015% Brij 35).
Fluorescently labeled synthetic peptides were used as substrates in all reactions. A peptide derived from the sequence of IRS-1 (IRS-1 peptide, FITC-Ahx-[…]-NH2) was used for JAK1 and TYK2 and a peptide named JAK3tide (FITC-[…]-NH2) for JAK3. Specific assay conditions are described in Table 4:
(§5) The terminated reactions were transferred to the Caliper LabChip 3000 reader and the turnover of each reaction was measured by determining the substrate/product ratio.
(§6) Preparation of Compound Dilutions
(§7) Test compounds were dissolved in DMSO (10 mM) and transferred into 1.4 mL flatbottom or V-shaped Matrix tubes carrying a unique 2D matrix chip by individual compound hubs. The numbers of these chips were distinctively linked to the individual compound identification numbers. The stock solutions were stored at −20° C. if not used immediately. For the test procedure the vials were defrosted and identified by a scanner whereby a working sheet was generated that guided the subsequent working steps. Compound dilutions were made in 96 well plates. This format enabled the assay of maximally 40 individual test compounds at 8 concentrations (single points) including 4 reference compounds. The dilution protocol included the production of pre-dilution plates, master plates and assay plates:
(§8) Pre-dilution plates: 96 polypropylene well plates were used as pre-dilution plates. A total of 4 pre-dilution plates were prepared including 10 test compounds each on the plate positions A1-A10, one standard compound at A11 and one DMSO control at A12. All dilution steps were done on a HamiltonSTAR robot.
(§9) Master plates: 100 μI of individual compound dilutions including standard compound and controls of the 4 “pre-dilution plates” were transferred into a 384 “master plate” including the following concentrations 1′820, 564, 182, 54.6, 18.2, 5.46, 1.82 and 0.546 μM, respectively in 90% of DMSO.
Assay plates: Identical assay plates were then prepared by pipetting 100 nL of compound dilutions of the master plates into 384-well “assay plates”. In the following the compounds were mixed with 9 μI of assays components plus 9 μI enzyme corresponding to a 1:181 dilution steps enabling the final concentration of 10, 3.0, 1.0, 0.3, 0.1, 0.03, 0.01 and 0.003 μM, respectively. The preparation of the master plates were handled by the Matrix PlateMate Plus robot and replication of assay plates by the HummingBird robot.

GST-TYK2(888-1187) = GST-TYK2(888-1187) (Homo sapiens (Human), UniProt P29597); assay: Caliper mobility shift kinase assay, TYK2; details: IRS-1 peptide 5 μM, ATP 30 μM, 60 minutes at 30° C.
From the text: as §1, §2, §3, §4
(§10) 18 μI. […] The reactions were started by combining 9 μI of substrate mix (consisting of peptide and ATP) with 9 μI of kinase dilution. The reactions were incubated for 60 minutes at 30° C. and stopped by adding 70 μI of stop buffer (100 mM Hepes, 5% DMSO, 0.1% Coating reagent, 10 mM EDTA, 0.015% Brij 35).
(§11) Fluorescently labeled synthetic peptides were used as substrates in all reactions. […] Specific assay conditions are described in Table 4:
as §5, §6, §7, §8, §9
(§12) Assay plates: Identical assay plates were then prepared by pipetting 100 nL of compound dilutions of the master plates into 384-well “assay plates”. […] The preparation of the master plates were handled by the Matrix PlateMate Plus robot and replication of assay plates by the HummingBird robot.

GST-JAK1(866-1154) = GST-JAK1(866-1154) (Homo sapiens (Human), UniProt P23458); assay: Caliper mobility shift kinase assay, JAK1; details: IRS-1 peptide 5 μM, ATP 40 μM, 60 minutes at 30° C.
From the text: as §1, §2, §3, §4, §10, §11, §5, §6, §7, §8, §9, §12

Sequence of GST-JAK3(811-1124) (P52333 811-1124): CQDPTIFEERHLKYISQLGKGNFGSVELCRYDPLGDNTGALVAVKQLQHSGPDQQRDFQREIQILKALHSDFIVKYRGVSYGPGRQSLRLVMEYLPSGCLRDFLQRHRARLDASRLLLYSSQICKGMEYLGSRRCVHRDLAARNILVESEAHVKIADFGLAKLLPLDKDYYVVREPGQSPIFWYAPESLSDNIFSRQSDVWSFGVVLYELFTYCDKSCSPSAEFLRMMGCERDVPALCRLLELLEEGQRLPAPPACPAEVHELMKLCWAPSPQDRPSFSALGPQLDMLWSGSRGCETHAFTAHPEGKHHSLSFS
Sequence of GST-TYK2(888-1187) (P29597 888-1187): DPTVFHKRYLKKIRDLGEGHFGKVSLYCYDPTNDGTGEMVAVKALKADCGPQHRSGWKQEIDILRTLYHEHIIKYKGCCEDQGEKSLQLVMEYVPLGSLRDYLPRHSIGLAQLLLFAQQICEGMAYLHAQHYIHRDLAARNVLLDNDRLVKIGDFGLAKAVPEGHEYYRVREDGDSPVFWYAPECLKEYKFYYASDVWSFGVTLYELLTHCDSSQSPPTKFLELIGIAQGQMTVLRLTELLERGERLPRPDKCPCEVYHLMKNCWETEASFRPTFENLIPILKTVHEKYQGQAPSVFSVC
Sequence of GST-JAK1(866-1154) (P23458 866-1154): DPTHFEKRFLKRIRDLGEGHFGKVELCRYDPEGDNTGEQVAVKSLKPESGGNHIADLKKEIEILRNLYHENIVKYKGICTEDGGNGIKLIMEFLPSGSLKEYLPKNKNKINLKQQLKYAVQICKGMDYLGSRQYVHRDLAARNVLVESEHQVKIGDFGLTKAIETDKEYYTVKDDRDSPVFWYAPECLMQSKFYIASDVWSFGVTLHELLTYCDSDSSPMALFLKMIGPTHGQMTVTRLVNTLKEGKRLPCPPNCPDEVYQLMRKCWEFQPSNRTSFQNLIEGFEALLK

SMILES | IC50 (GST-JAK3(811-1124)) | IC50 (GST-TYK2(888-1187)) | IC50 (GST-JAK1(866-1154))
CNS(=O)(=O)C[C@H]1CC[C@H](N(C)c2ncnc3[nH]c(C)nc23)CC1 [compound 1] | 7.93 µM |  | 
CNS(=O)(=O)C[C@H]1CC[C@H](N(C)c2ncnc3[nH]cnc23)CC1 [compound 2, N-methyl-1-[trans-4-[methyl(9H-purin-6-yl)amino]cyclohexyl]methanesulfonamide] | 1.89 µM | 4.59 µM | 0.582 µM
CNS(=O)(=O)C[C@H]1CC[C@H](N(C)c2ncnc3[nH]ncc23)CC1 [compound 3] | > 10 µM | > 10 µM | > 10 µM
CNS(=O)(=O)C[C@H]1CC[C@H](N(C)c2ncnc3[nH]c(-c4ccccc4)nc23)CC1 [compound 4] | > 10 µM | > 10 µM | > 10 µM
CNS(=O)(=O)C[C@H]1CC[C@H](N(C)c2ncnc3[nH]c(Cc4ccccc4)nc23)CC1 [compound 5] | > 10 µM | > 10 µM | > 10 µM
CNS(=O)(=O)C[C@H]1CC[C@H](N(C)c2ncnc3sccc23)CC1 [compound 9] | > 10 µM | > 10 µM | > 10 µM
CNS(=O)(=O)C[C@H]1CC[C@H](N(C)c2c(C#N)cnc3sccc23)CC1 [compound 17] | > 10 µM | > 10 µM | > 10 µM
CNS(=O)(=O)C[C@H]1CC[C@H](N(C)c2c([N+](=O)[O-])cnc3[nH]ccc23)CC1 [compound 18] | 1.2 µM | 0.39 µM | 
CNS(=O)(=O)C[C@H]1CC[C@H](Oc2c(C#N)cnc3sccc23)CC1 [compound 20] | > 10 µM | > 10 µM | > 10 µM
CNS(=O)(=O)C[C@H]1CC[C@H](N(C)c2nc(N)ncc2-c2ccccc2)CC1 [compound 21] | > 10 µM | > 10 µM | > 10 µM
CNS(=O)(=O)C[C@H]1CC[C@H](n2cnc3cnc4[nH]ccc4c32)CC1 [compound 22, 1-[trans-4-(imidazo[4,5-d]pyrrolo[2,3-b]pyridin-1(6H)-yl)cyclohexyl]-N-methylmethanesulfonamide] | 0.26 µM | 0.13 µM | 0.01 µM
CNS(=O)(=O)C[C@H]1CC[C@H](N(C)c2c(C#N)cnn3cccc23)CC1 [compound 24] | > 10 µM | 8.5 µM | 0.93 µM
CNS(=O)(=O)C[C@H]1CC[C@H](Oc2c([N+](=O)[O-])cnc3[nH]ccc23)CC1 [compound 25, N-methyl-1-[trans-4-[(5-nitro-1H-pyrrolo[2,3-b]pyridin-4-yl)oxy]cyclohexyl]methanesulfonamide] | 3.6 µM |  | 0.071 µM
CNS(=O)(=O)C[C@H]1CC[C@H](N(C)c2c(C#N)cnc3[nH]ccc23)CC1 [compound 26, 1-[trans-4-[(5-cyano-1H-pyrrolo[2,3-b]pyridin-4-yl)-methyl-amino]cyclohexyl]-N-methyl-methanesulfonamide] | 3 µM | 0.84 µM | 0.034 µM
CNS(=O)(=O)C[C@H]1CC[C@H](N(C)c2ncnn3cccc23)CC1 [compound 28] | > 10 µM | 3.2 µM | 0.55 µM

Second part, the compound after the results:

IC50 (GST-JAK3(811-1124)) | IC50 (GST-TYK2(888-1187)) | IC50 (GST-JAK1(866-1154)) | SMILES
> 10 µM | > 10 µM | > 10 µM | CNS(=O)(=O)C[C@H]1CC[C@H](Oc2ncnn3cccc23)CC1 [compound 6]
> 10 µM | > 10 µM | > 10 µM | CNS(=O)(=O)C[C@H]1CC[C@H](N(C)c2nc(N)ncc2Br)CC1 [compound 7]
> 10 µM | > 10 µM | > 10 µM | CNS(=O)(=O)C[C@H]1CC[C@H](Nc2ncnc3sccc23)CC1 [compound 8]
> 10 µM | > 10 µM | > 10 µM | CNS(=O)(=O)C[C@H]1CC[C@H](N(C)c2cc(Cl)nc(N)n2)CC1 [compound 10]
> 10 µM | > 10 µM | > 10 µM | CNS(=O)(=O)C[C@H]1CC[C@H](Nc2ccnc(N)n2)CC1 [compound 11]
> 10 µM | > 10 µM | > 10 µM | CNS(=O)(=O)C[C@H]1CC[C@H](Nc2nc(N)ncc2C)CC1 [compound 12]
> 10 µM | 6 µM |  | CNS(=O)(=O)C[C@H]1CC[C@H](Nc2nc(N)ncc2Br)CC1 [compound 13]
> 10 µM | > 10 µM | > 10 µM | CNS(=O)(=O)C[C@H]1CC[C@H](Nc2c(C#N)cnc3sccc23)CC1 [compound 14]
> 10 µM | > 10 µM | > 10 µM | CNS(=O)(=O)C[C@H]1CC[C@H](Nc2ncnn3cccc23)CC1 [compound 15]
> 10 µM | > 10 µM | > 10 µM | CNS(=O)(=O)C[C@H]1CC[C@H](N(C)c2ccnc(N)n2)CC1 [compound 16]
> 10 µM | > 10 µM | > 10 µM | CNS(=O)(=O)C[C@H]1CC[C@H](Oc2ncnc3sccc23)CC1 [compound 19]
> 10 µM | > 10 µM | > 10 µM | CNS(=O)(=O)C[C@H]1CC[C@H](Nc2nc(N)ncc2-c2ccccc2)CC1 [compound 23]
> 10 µM |  | 1.8 µM | CNS(=O)(=O)C[C@H]1CC[C@H](Nc2c(C#N)cnn3cccc23)CC1 [compound 27]
